Patent publication US20230115274A1, “COMPOUNDS AND COMPOSITIONS FOR TREATING CONDITIONS ASSOCIATED WITH STING ACTIVITY” (IFM Due, Inc., priority 2019, published 2023)

Target: T1, hSTING (Homo sapiens, UniProt Q86WV6, G230A/H232R/R293Q/R71H)
T1 construct: host or cells: THP1-Dual KO-IFNAR2 cells
Test: STING reporter assay (luciferase) in THP1-Dual KO-IFNAR2 cells stimulated with 2′3′cGAMP
Type: cell-based
Details: 2′3′cGAMP 15 μM, 24 h, class symbols
Method: STING pathway activation by the compounds described herein was measured using THP1-Dual™ cells (KO-IFNAR2).
THP1-Dual™ KO-IFNAR2 Cells (obtained from invivogen) were maintained in RPMI, 10% FCS, 5 ml P/S, 2 mM L-glut, 10 mM Hepes, and 1 mM sodium pyruvate. Compounds were spotted in empty 384 well tissue culture plates (Greiner 781182) by Echo for a final concentration of 0.0017-100 μM. Cells were plated into the TC plates at […], 2×10E6 cells/mL. For activation with STING ligand, 2′3′cGAMP (MW 718.38, obtained from Invivogen), was prepared in Optimem media.
The following solutions were prepared for each 1×384 plate: • Solution A: 2 mL Optimem with one of the following stimuli: • […] • Solution B: 2 mL Optimem with 60 μL Lipofectamine 2000->Incubate 5 min at RT
2 mL of solution A and 2 ml Solution B was mixed and incubated for 20 min at room temperature (RT). 20 uL of transfection solution (A+B) was added on top of the plated cells, with a final 2′3′cGAMP concentration of 15 μM. The plates were then centrifuged immediately at 340 g for 1 minute, after which they were incubated at 37° C., 5% CO2, >98% humidity for 24 h. Luciferase reporter activity was then measured. EC50 values were calculated by using standard methods known in the art.
Luciferase reporter assay: 10 μL of supernatant from the assay was transferred to white 384-plate with flat bottom and squared wells. One pouch of QUANTI-Luc™ Plus was dissolved in 25 mL of water. 100 μL of QLC Stabilizer per 25 mL of QUANTI-Luc™ Plus solution was added. 50 μL of QUANTI-Luc™ Plus/QLC solution per well was then added. Luminescence was measured on a Platereader (e.g., Spectramax I3X (Molecular Devices GF3637001)).
Luciferase reporter activity was then measured. EC50 values were calculated by using standard methods known in the art.

T1 sequence (Q86WV6 whole entry R71H/G230A/H232R/R293Q): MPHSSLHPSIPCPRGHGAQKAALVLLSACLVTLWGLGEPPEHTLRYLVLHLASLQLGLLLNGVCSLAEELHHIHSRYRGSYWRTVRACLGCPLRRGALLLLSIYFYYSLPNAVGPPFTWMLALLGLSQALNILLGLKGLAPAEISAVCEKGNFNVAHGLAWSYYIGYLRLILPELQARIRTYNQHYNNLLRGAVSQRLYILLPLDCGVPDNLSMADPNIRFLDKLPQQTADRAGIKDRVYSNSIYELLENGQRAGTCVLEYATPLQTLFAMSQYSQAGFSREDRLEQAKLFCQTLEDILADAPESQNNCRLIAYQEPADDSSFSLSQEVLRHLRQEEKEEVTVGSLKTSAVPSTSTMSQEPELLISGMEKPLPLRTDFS

EC50, 5000 to 100000 nM:
Cc1cc(NC(=O)Nc2c[nH]c3cccnc23)cnc1C1CCC(F)(F)CC1 [Compound 136, 1-(6-(4,4-difluorocyclohexyl)-5-methylpyridin-3-yl)-3-(1H-pyrrolo[3,2-b]pyridin-3-yl)urea]

EC50, 1000 to 5000 nM:
Cc1cc(NC(=O)Nc2c[nH]c3ncc(Cl)cc23)cnc1C1CCC(F)(F)CC1 [Compound 137, 1-(5-chloro-1H-pyrrolo[2,3-b]pyridin-3-yl)-3-(6-(4,4-difluorocyclohexyl)-5-methylpyridin-3-yl)urea]
O=C(Nc1ccc(NC2CCC2)nc1)Nc1c[nH]c2ncc(F)cc12 [Compound 112, 1-(6-(cyclobutylamino)pyridin-3-yl)-3-(5-fluoro-1H-pyrrolo[2,3-b]pyridin-3-yl)urea]
O=C(Nc1cc(Cl)nc(C2CCC(F)(F)CC2)c1)Nc1c[nH]c2cccnc12 [Compound 217, 1-(2-chloro-6-(4,4-difluorocyclohexyl)pyridin-4-yl)-3-(1H-pyrrolo[3,2-b]pyridin-3-yl)urea]
COc1ccc2[nH]cc(NC(=O)Nc3cnc(N4CC(F)(F)C4)c(F)c3)c2n1 [Compound 232, 1-(6-(3,3-difluoroazetidin-1-yl)-5-fluoropyridin-3-yl)-3-(5-methoxy-1H-pyrrolo[3,2-b]pyridin-3-yl)urea]
Cc1cnc2[nH]cc(NC(=O)Nc3ccc(C4CCC(F)(F)CC4)nc3)c2c1 [Compound 106, 1-(6-(4,4-difluorocyclohexyl)pyridin-3-yl)-3-(5-methyl-1H-pyrrolo[2,3-b]pyridin-3-yl)urea]
O=C(Nc1cnc(N2CCN(CCC(F)(F)F)CC2)c(Cl)c1)Nc1c[nH]c2cccnc12 [Compound 225, 1-(5-chloro-6-(4-(3,3,3-trifluoropropyl)piperazin-1-yl)pyridin-3-yl)-3-(1H-pyrrolo[3,2-b]pyridin-3-yl)urea]
O=C(Nc1ccc(C2CC(F)(F)C2)nc1)Nc1c[nH]c2ncc(F)cc12 [Compound 161, 1-(6-(3,3-difluorocyclobutyl)pyridin-3-yl)-3-(5-fluoro-1H-pyrrolo[2,3-b]pyridin-3-yl)urea]
COC1CCN(c2ncc(NC(=O)Nc3c[nH]c4ncc(F)cc34)cc2C)CC1 [Compound 194, 1-(5-fluoro-1H-pyrrolo[2,3-b]pyridin-3-yl)-3-(6-(4-methoxypiperidin-1-yl)-5-methylpyridin-3-yl)urea]

EC50, 40 to 200 nM:
N#Cc1cc(NC(=O)Nc2c[nH]c3ncc(F)cc23)cnc1C1CCC(F)(F)CC1 [Compound 155, 1-(5-cyano-6-(4,4-difluorocyclohexyl)pyridin-3-yl)-3-(5-fluoro-1H-pyrrolo[2,3-b]pyridin-3-yl)urea]
N#Cc1cc(NC(=O)Nc2c[nH]c3ncc(F)cc23)ccc1C1CCC(F)(F)CC1 [Compound 195, 1-(3-cyano-4-(4,4-difluorocyclohexyl)phenyl)-3-(5-fluoro-1H-pyrrolo[2,3-b]pyridin-3-yl)urea]

EC50, 200 to 1000 nM:
COc1cnc2[nH]cc(NC(=O)Nc3cnc(N4CCC(F)(F)CC4)c(Cl)c3)c2c1 [Compound 181, 1-(5-chloro-6-(4,4-difluoropiperidin-1-yl)pyridin-3-yl)-3-(5-methoxy-1H-pyrrolo[2,3-b]pyridin-3-yl)urea]
COc1cc(NC(=O)Nc2c[nH]c3ncc(F)cc23)cnc1N1CCC(F)(F)CC1 [Compound 165, 1-(6-(4,4-difluoropiperidin-1-yl)-5-methoxypyridin-3-yl)-3-(5-fluoro-1H-pyrrolo[2,3-b]pyridin-3-yl)urea]
O=C(Nc1cnc(C2CC(F)(F)C2)c(Cl)c1)Nc1c[nH]c2cccnc12 [Compound 143, 1-(5-chloro-6-(3,3-difluorocyclobutyl)pyridin-3-yl)-3-(1H-pyrrolo[3,2-b]pyridin-3-yl)urea]
COc1ccc2[nH]cc(NC(=O)Nc3cnc(C4CC(F)(F)C4)c(Cl)c3)c2n1 [Compound 243, 1-(5-chloro-6-(3,3-difluorocyclobutyl)pyridin-3-yl)-3-(5-methoxy-1H-pyrrolo[3,2-b]pyridin-3-yl)urea]
COCCOc1ccc2[nH]cc(NC(=O)Nc3cnc(C4CCC(F)(F)CC4)c(F)c3)c2n1 [Compound 210, 1-(6-(4,4-difluorocyclohexyl)-5-fluoropyridin-3-yl)-3-(5-(2-methoxyethoxy)-1H-pyrrolo[3,2-b]pyridin-3-yl)urea]
O=C(Nc1cnc(OC2CCC2)c(F)c1)Nc1c[nH]c2ncc(F)cc12 [Compound 111, 1-(6-cyclobutoxy-5-fluoropyridin-3-yl)-3-(5-fluoro-1H-pyrrolo[2,3-b]pyridin-3-yl)urea]
N#Cc1cc(NC(=O)Nc2c[nH]c3ncc(F)cc23)cnc1N1CCC(F)(F)CC1 [Compound 157, 1-(5-cyano-6-(4,4-difluoropiperidin-1-yl)pyridin-3-yl)-3-(5-fluoro-1H-pyrrolo[2,3-b]pyridin-3-yl)urea]
O=C(Nc1cnc(N2CCC3(CC2)CC3)c(Cl)c1)Nc1c[nH]c2cccnc12 [Compound 221, 1-(5-chloro-6-(6-azaspiro[2.5]octan-6-yl)pyridin-3-yl)-3-(1H-pyrrolo[3,2-b]pyridin-3-yl)urea]
Cc1cc(NC(=O)Nc2c[nH]c3ncc(F)cc23)cnc1N1CCC(C)CC1 [Compound 170, 1-(5-fluoro-1H-pyrrolo[2,3-b]pyridin-3-yl)-3-(5-methyl-6-(4-methylpiperidin-1-yl)pyridin-3-yl)urea]
O=C(Nc1cnc(N2CCC(F)(F)CC2)c(Cl)c1)Nc1c[nH]c2cccnc12 [Compound 188, 1-(5-chloro-6-(4,4-difluoropiperidin-1-yl)pyridin-3-yl)-3-(1H-pyrrolo[3,2-b]pyridin-3-yl)urea]
Cc1cc(NC(=O)Nc2c[nH]c3ncc(F)cc23)cnc1N1CC2(C1)CC(F)(F)C2 [Compound 162, 1-(6-(6,6-difluoro-2-azaspiro[3.3]heptan-2-yl)-5-methylpyridin-3-yl)-3-(5-fluoro-1H-pyrrolo[2,3-b]pyridin-3-yl)urea]
COc1ccc2[nH]cc(NC(=O)Nc3ccc(C4CC(F)(F)C4)c(F)c3)c2n1 [Compound 238, 1-(4-(3,3-difluorocyclobutyl)-3-fluorophenyl)-3-(5-methoxy-1H-pyrrolo[3,2-b]pyridin-3-yl)urea]
CCc1cc(NC(=O)Nc2c[nH]c3ncc(F)cc23)cnc1N1CCC(F)(F)CC1 [Compound 163, 1-(6-(4,4-difluoropiperidin-1-yl)-5-ethylpyridin-3-yl)-3-(5-fluoro-1H-pyrrolo[2,3-b]pyridin-3-yl)urea]
COc1ccc2[nH]cc(NC(=O)Nc3cnc(C4CCC(F)(F)CC4)c(F)c3)c2n1 [Compound 229, 1-(6-(4,4-difluorocyclohexyl)-5-fluoropyridin-3-yl)-3-(5-methoxy-1H-pyrrolo[3,2-b]pyridin-3-yl)urea]
CC(=O)n1cc(NC(=O)Nc2ccc(C3CCC(F)(F)CC3)nc2)c2cc(F)cnc21 [Compound 122, 1-(1-acetyl-5-fluoro-1H-pyrrolo[2,3-b]pyridin-3-yl)-3-(6-(4,4-difluorocyclohexyl)pyridin-3-yl)urea]
O=C(Nc1cnc(C2CCC(F)(F)CC2)c(F)c1)Nc1c[nH]c2cccnc12 [Compound 234, 1-(6-(4,4-difluorocyclohexyl)-5-fluoropyridin-3-yl)-3-(1H-pyrrolo[3,2-b]pyridin-3-yl)urea]
COc1ccc2[nH]cc(NC(=O)Nc3cnc(C4CCC(F)(F)CC4)c(C#N)c3)c2n1 [Compound 140, 1-(5-cyano-6-(4,4-difluorocyclohexyl)pyridin-3-yl)-3-(5-methoxy-1H-pyrrolo[3,2-b]pyridin-3-yl)urea]
O=C(Nc1cnc(N2CCC(F)(F)CC2)c(Cl)c1)Nc1c[nH]c2cc(F)cnc12 [Compound 145, 1-(5-chloro-6-(4,4-difluoropiperidin-1-yl)pyridin-3-yl)-3-(6-fluoro-1H-pyrrolo[3,2-b]pyridin-3-yl)urea]
COc1cnc2[nH]cc(NC(=O)Nc3cnc(N4CCC(F)(F)CC4)c(F)c3)c2c1 [Compound 184, 1-(6-(4,4-difluoropiperidin-1-yl)-5-fluoropyridin-3-yl)-3-(5-methoxy-1H-pyrrolo[2,3-b]pyridin-3-yl)urea]

Same assay, conditions: 2′3′cGAMP 15 μM, 24 h, numeric bounds

EC50, > 100000 nM:
O=C(Nc1ccc(C2CCC(O)CC2)nc1)Nc1c[nH]c2ncc(F)cc12 (centres unmarked) [Compound 114, 1-(5-fluoro-1H-pyrrolo[2,3-b]pyridin-3-yl)-3-(6-(4-hydroxycyclohexyl)pyridin-3-yl)urea]

EC50, > 30000 nM:
Cc1cc(N2CCC(F)(F)CC2)ncc1NC(=O)Nc1c[nH]c2nccc(C)c12 [Compound 179, 1-(6-(4,4-difluoropiperidin-1-yl)-4-methylpyridin-3-yl)-3-(4-methyl-1H-pyrrolo[2,3-b]pyridin-3-yl)urea]
